Measurements taken from PMC9046087, “Structural basis of tethered agonism of the adhesion GPCRs ADGRD1 and ADGRF1” (Nature, 2022).
Where a chain is given by its changes, count along the chain named. Ends that are not written are not given here.

Columns and labels:
[1] = target: T1, ADGRF1 (Homo sapiens, UniProt Q5T601, R623A); experiment: BRET assay using TRUPATH biosensors, Gs activation of ADGRF1; format: cell-based; details: Gs, ADGRF1 R623^2.46bA, n = 3
T1 construct: Flag (N); expressed in transfected cells; host or cells: HEK293F
T1 sequence (Q5T601 20-910 R623A): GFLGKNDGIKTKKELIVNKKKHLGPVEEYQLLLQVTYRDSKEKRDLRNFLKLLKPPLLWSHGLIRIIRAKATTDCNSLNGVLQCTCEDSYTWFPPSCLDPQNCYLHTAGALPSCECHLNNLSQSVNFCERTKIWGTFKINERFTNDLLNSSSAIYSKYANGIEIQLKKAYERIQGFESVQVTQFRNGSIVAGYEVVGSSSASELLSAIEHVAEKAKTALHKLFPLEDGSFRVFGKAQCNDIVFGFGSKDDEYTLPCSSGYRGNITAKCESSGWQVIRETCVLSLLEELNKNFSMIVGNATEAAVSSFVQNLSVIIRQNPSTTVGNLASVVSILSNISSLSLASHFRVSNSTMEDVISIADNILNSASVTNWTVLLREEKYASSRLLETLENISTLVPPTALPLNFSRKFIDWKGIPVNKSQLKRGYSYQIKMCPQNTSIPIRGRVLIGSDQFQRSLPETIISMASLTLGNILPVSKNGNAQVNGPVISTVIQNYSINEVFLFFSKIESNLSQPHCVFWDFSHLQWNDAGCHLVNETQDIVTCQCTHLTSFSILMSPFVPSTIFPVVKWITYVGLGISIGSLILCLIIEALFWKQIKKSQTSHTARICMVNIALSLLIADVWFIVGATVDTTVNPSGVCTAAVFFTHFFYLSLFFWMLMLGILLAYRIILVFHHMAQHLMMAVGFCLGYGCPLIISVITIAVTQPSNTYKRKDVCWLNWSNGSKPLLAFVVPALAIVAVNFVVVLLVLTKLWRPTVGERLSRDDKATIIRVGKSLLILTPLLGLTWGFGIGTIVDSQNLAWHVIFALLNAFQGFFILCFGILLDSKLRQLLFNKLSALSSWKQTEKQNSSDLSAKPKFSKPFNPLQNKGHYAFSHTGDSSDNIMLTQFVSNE
Method: (§1) To study the synthetic stalk peptide-induced G protein activation of ADGRD1 and ADGRF1, a BRET assay using TRUPATH biosensors was conducted to measure the proximal interaction between RLuc8 fused to the Gα subunit and GFP2 fused to the Gγ subunit. The TRUPATH suite of biosensors was obtained from Addgene (Addgene kit no. 1000000163) as a gift from B. Roth, including GαsS-RLuc8, Gαi1-RLuc8, Gβ3 and Gγ9-GFP2 as previously described.
(§2) The wild-type or mutant ADGRD1 and ADGRF1 were transiently co-transfected with plasmids encoding Gα-RLuc8 (GαsS-RLuc8 for Gs activation assay; Gαi1-RLuc8 for Gi activation assay), Gβ3 and Gγ9-GFP2 at a ratio of 2:1:1:1 (receptor plasmid, 800 ng; G protein subunit plasmids, 400 ng for each) in 2 ml HEK293F cells at a density of 1.2 × 10^6 cells per ml. Cell cultivation and receptor surface expression measurement were performed as described above. The cells were plated into 96-well white plates (40,000 cells per well) in 60 μl of assay buffer and incubated at 37 °C for 30 min. Then 10 μl of freshly prepared 50 μM coelenterazine 400a (Nanolight Technologies) was added. […] The cells were stimulated with 30 μl of synthetic stalk peptide at different concentrations and the BRET signals were monitored continuously five times. The last measurements were used in data analysis. The BRET ratios were calculated as the ratio of the GFP2 emission to RLuc8 emission.

[2] = target: T2, ADGRF1 (Homo sapiens, UniProt Q5T601, V689A); experiment: as above; format: cell-based; details: Gs, ADGRF1 V689^ICL2A, n = 3
T2 construct: Flag (N); expressed in transfected cells; host or cells: HEK293F
T2 sequence (Q5T601 20-910 V689A): T1 sequence (Q5T601 20-910 R623A) with A604R, V670A
Method: as §1, §2

[3] = read-out: pEC50 (mean ± s.e.m.) (converted)

TSFSILMSPFVP [pF1]
Emax (mean ± s.e.m.) [1]: 57 ± 10 % of WT | EC50 [1, 3]: 0.148 µM | Emax (mean ± s.e.m.) [2]: 77 ± 10 % of WT | EC50 [2, 3]: 0.204 µM
